Patent US12410157B2, “Compound useful as toll-like receptor 7 activation inhibitor” (TOYAMA PREFECTURAL UNIVERSITY, priority 2020, dated 2025)
Values joined by “and” are separate entries in the source; they are usually repeats but may differ in a detail not shown here. Equal entries are not always repeated. “Also recorded” adds a separate entry of the source. Structures can show the parent of a compound that is named as a salt.

What was measured:
TLR7 [1] = target: T1, TLR7 (Mus musculus, UniProt P58681); test: TLR7 inhibition (R848-induced serum IFN-α) by intraperitoneal administration in mice; type: in vivo, mice (C57BL/6N); conditions: Example 13
T1 construct: from tissue; host or cells: whole animal, C57BL/6N mice (serum IFN-α after R848)
T1 sequence (P58681 27-1050): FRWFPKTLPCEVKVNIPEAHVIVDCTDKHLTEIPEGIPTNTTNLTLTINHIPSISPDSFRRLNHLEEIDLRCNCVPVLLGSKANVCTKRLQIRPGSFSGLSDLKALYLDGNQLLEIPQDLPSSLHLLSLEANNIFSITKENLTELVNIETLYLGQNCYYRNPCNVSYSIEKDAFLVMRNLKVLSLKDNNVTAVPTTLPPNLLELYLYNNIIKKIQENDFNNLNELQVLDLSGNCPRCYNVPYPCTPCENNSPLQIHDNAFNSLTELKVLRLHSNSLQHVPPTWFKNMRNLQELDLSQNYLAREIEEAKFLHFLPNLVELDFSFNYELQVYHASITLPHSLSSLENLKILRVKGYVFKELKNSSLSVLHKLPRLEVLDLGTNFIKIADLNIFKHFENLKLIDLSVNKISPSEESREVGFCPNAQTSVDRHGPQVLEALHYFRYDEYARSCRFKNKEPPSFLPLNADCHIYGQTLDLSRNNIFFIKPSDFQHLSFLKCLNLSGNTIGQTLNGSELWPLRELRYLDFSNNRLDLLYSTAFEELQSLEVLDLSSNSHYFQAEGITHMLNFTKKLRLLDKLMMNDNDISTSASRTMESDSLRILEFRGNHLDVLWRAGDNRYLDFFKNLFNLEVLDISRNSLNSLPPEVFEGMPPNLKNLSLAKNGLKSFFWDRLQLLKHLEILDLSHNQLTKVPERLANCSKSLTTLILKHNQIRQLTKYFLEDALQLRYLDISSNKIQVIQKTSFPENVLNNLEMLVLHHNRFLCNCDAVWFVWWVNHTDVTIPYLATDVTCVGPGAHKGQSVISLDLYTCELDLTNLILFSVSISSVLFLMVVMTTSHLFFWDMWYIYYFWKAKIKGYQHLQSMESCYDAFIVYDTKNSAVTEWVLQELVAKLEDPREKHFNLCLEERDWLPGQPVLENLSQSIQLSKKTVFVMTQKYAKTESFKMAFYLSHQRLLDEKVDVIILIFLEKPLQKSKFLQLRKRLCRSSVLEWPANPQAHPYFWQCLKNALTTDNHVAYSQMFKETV
Procedure: Normal mice (C57BL/6N, 11 weeks old, female) were administered B2-24-4-5A·HCOOH (1, 5, 10, 100 and 1000 μg) or hydroxychloroquine sulfate (HCQ, 1000 μg) as a comparison drug intraperitoneally, followed by 5 μg of R848 after 30 minutes. The solvent was saline solution. 1 hour after R848 administration, blood was collected and the concentration of IFN-α in the serum was quantified using ELISA (used kit: Mouse IFN alpha Platinum ELISA (trade name), eBioscience). The plots in FIG. 7 represent the data for each individual, each bold line represents the mean value of each group data, and each error bar represents the standard error of each group data.
The same method as in Example 13 was used to study the TLR7 inhibition effect of intraperitoneal administration of B2-24-4·HCl, B2-24-4-5A or B2-24-4-5A·HCOOH in mice. B2-24-4·HCl, B2-24-4-5A and B2-24-4-5A·HCOOH were administered at a dose of 10 μg. The plots in FIG. 8 represent the data for each individual, each bold line represents the mean of each group data, and each error bar represents the standard error of each group data.

TLR7 [2] = target: T2, TLR7 (Homo sapiens, UniProt Q9NYK1); test: TLR7 inhibitory effect (IL-6) in PBMCs from patients with systemic lupus erythematosus; type: cell-based; conditions: SLE patient PBMCs
T2 construct: PBMCs were isolated from 7 mL of blood collected from patients with systemic lupus erythematosus; endogenous in cells; host or cells: PBMCs from patients with systemic lupus erythematosus
T2 sequence (Q9NYK1 27-1049): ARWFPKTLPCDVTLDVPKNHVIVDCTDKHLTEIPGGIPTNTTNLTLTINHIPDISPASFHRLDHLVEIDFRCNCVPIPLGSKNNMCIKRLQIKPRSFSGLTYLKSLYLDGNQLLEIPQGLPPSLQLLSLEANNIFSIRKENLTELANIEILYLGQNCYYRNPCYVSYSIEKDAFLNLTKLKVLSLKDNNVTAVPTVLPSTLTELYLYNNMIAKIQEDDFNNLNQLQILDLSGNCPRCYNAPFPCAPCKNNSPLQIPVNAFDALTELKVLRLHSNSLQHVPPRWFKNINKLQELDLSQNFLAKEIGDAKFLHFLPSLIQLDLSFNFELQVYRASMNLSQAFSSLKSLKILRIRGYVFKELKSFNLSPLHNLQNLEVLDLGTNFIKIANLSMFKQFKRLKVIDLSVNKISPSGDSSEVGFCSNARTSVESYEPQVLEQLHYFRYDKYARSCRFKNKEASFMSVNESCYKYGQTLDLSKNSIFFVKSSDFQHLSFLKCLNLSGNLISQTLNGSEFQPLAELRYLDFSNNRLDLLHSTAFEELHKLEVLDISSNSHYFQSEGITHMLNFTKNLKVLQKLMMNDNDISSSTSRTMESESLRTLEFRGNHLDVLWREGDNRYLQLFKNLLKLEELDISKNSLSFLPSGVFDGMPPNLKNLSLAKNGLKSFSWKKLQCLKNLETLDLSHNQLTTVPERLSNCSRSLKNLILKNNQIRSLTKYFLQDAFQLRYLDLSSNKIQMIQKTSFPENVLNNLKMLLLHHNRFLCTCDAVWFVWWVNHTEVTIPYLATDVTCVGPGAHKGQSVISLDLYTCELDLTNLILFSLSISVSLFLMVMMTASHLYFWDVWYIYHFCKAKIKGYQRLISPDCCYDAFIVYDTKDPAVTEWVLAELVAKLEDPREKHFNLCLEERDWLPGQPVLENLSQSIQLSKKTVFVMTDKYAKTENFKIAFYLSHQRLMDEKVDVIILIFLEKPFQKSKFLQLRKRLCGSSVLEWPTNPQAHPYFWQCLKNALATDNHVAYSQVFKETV
Procedure: The TLR7 inhibitory effect of B2-24-4-5A·HCOOH on PBMCs derived from patients with systemic lupus erythematosus was studied. PBMCs were isolated from 7 mL of blood collected from patients with systemic lupus erythematosus. Isolated PBMCs were spread into each well of a 96-well plate containing RPMI 1640 medium containing 10% (v/v) fetal calf serum (FCS), penicillin, streptomycin, L-glutamic acid, and 2-mercaptoethanol at 0.5×10^5/100 μL and incubated at 37° C. in the presence of 5% (v/v) CO2. 50 μL of B2-24-4-5A·HCOOH, B2-24-4·HCl or the comparative drug hydroxychloroquine sulfate (HCQ) was added to each well to achieve a final concentration of 0.1 μM, 0.5 μM, 1 μM, 5 μM, 10 μM or 50 μM and incubated for 30 minutes. The TLR7 ligand, Gardiquimod (Invivogen), was added at a final concentration of 3 μg/mL and incubated for 24 hours. After incubation, all culture media were collected and the concentration of IL-6 in the culture medium was quantified using ELISA (used kit: human IL-6 DuoSet ELISA (trade name), manufactured by R&D Systems).

[3] = test system: systemic lupus erythematosus model mice (NZBWF1); test: Therapeutic effect in mouse model of spontaneous systemic lupus erythematosus; type: in vivo
Procedure: Systemic lupus erythematosus model mice (NZBWF1, 20 weeks old, female, n=55) were divided into saline-administered group (control, n=25), B2-24-4-5A·HCOOH-administered group (n=10), B2-24-4·HCOOH-administered group (n=5) and HCQ-administered group (n=15). The saline-administered group received saline (100 l) orally once a day, every day; the B2-24-4-5A·HCOOH-administered group received 10 mg/kg of B2-24-4-5A·HCOOH (100 l) orally once a day, every day; the B2-24-4·HCOOH-administered group received 10 mg/kg of B2-24-4·HCOOH (100 l) orally once a day, every day; the HCQ-administered group received 10 mg/kg of HCQ (100 l) orally once a day, every day. Fifteen weeks after the start of treatment, urine was collected from surviving mice in the saline-administered group (control, n=17), B2-24-4-5A·HCOOH-administered group (n=10), B2-24-4·HCOOH-administered group (n=5), and HCQ-administered group (n=12), and the mice were euthanized. After euthanasia, blood was drawn from the abdominal aorta of the mice, and the kidneys and spleen were removed.
Mice that died of natural causes during the 15-week period from the start of treatment were counted as deaths, and survival analysis was performed using the Kaplan Meier method. Blood collected from the abdominal aorta of each mouse, excluding the deceased cases, was centrifuged and serum was prepared. Determination of urea nitrogen and creatinine levels in serum was entrusted to Oriental Yeast Co. Albumin levels in urine were determined by ELISA (used kit: Levis Urinary Albumin-Mouse (S-type) (trade name) (Fujifilm Wako Shibayagi Corporation)). The removed kidneys were fixed with 4% (w/v) paraformaldehyde, and immunohistochemical staining was entrusted to Morpho Technology, Inc. In PAS-stained kidney tissue sections, histological findings of 100 glomeruli were evaluated. For increased cells and substrate in the mesangial area, endothelial cell swelling and cellular infiltration of the capillary lumen (intratubular proliferation), and glomeruli with inflammatory crescents (extratubular proliferation), each of the 100 glomeruli was assigned a grade from grade 0 to grade 2 according to severity and scored on a 6-point scale.
FIG. 10F is a photograph showing C3 deposition in the glomeruli of a mouse (#1) in the saline-administered group, a mouse (#10) in the B2-24-4-5A·HCOOH-administered group, a mouse (#4) in the B2-24-4·HCOOH-administered group and a mouse (#14) in the HCQ-administered group. […] In the renal tissue sections of a mouse (#1) in the saline-administered group, findings of active glomerulonephritis such as diffuse mesangial and intratubular proliferation were observed. […] The plots in FIGS. 10B, 10C, and 10D show the data for each individual, each bold line is the mean of the group data, and each error bar standard error. Scale bars in FIGS. 10E and 10F represent 100 μm. […]

[4] = target: B lymphocyte stimulator (BLyS) (Homo sapiens, UniProt Q9Y275); conditions: after 52 weeks of intravenous administration (10 mg/kg); cited from earlier work
B lymphocyte stimulator (BLyS), sequence (Q9Y275 134-285 limits assumed): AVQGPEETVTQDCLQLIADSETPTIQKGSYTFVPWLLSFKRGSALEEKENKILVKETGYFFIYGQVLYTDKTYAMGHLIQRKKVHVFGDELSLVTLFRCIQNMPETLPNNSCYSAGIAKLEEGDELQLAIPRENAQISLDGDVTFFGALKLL

Compound: C=C(C)[C@@H]1CC[C@]2(COC(=O)C2)C[C@H]1c1ccc(CN2CCNCC2)cc1 [B2-24-4-5A]
- Order of strength of the effect on IFN-α production (TLR7 [1]; 10 μg, FIG. 8): stronger with B2-24-4-5A·HCOOH, B2-24-4-5A and B2-24-4·HCl in that order
- IFN-α production induced by R848 (TLR7 [1]; dose of 10 μg intraperitoneally): attenuated

Compound: CCN(CCO)CCCC(C)Nc1ccnc2cc(Cl)ccc12 (centres unmarked) [HCQ, hydroxychloroquine sulfate]
- Order of strength of the effect on IL-6 production (TLR7 [2]; FIG. 4): stronger for B2-24-4·HCl, B2-24-4-5A·HCOOH, and HCQ, in that order
- IL-6 production induced by gardiquimod stimulation (TLR7 [2]; 0.1-50 μM, Gardiquimod 3 μg/mL, 24 hours): attenuated
- Surviving mice fifteen weeks after the start of treatment ([3]; 10 mg/kg orally once a day, groups started with n=10, n=5, n=15 (HCQ)): 12
- Tubulo-interstitial inflammation ([3]; per mouse): Not found; also recorded: Found
- score ([3]; per mouse, histological score on a 6-point scale): 1.74 and 0.70 and 0.00 and 1.64 and 0.30 and 2.58 and 0.07 and 0.14 and 3.14 and 0.37 and 2.19 and 0.18
- Inside 0 ([3]; per mouse, of 100 glomeruli, endothelial cell swelling and cellular infiltration of capillary lumen, Grade 0): 43 and 87 and 100 (2×) and 38 and 95 and 12 and 99 and 15 and 96 and 22 and 98
- Inside 1 ([3]; per mouse, of 100 glomeruli, endothelial cell swelling and cellular infiltration of capillary lumen, Grade 1): 38 and 13 and 0 (2×) and 47 and 5 and 36 and 1 and 64 and 4 and 58 and 2
- Inside 2 ([3]; per mouse, of 100 glomeruli, endothelial cell swelling and cellular infiltration of capillary lumen, Grade 2): 19 and 0 (7×) and 15 and 52 and 21 and 20
- Outside 0 ([3]; per mouse, of 100 glomeruli, glomerulus with semilunar, Grade 0): 100 (10×) and 53 and 96
- Outside 1 ([3]; per mouse, of 100 glomeruli, glomerulus with semilunar, Grade 1): 0 (10×) and 26 and 4
- Outside 2 ([3]; per mouse, of 100 glomeruli, glomerulus with semilunar, Grade 2): 0 (11×) and 21
- Mes0 ([3]; per mouse, of 100 glomeruli, increase in cells and substrates in the mesangium region, Grade 0: None, 10 mg/kg orally, 15 weeks, 10 mg/kg): 15 and 43 and 100 and 16 and 75 and 8 and 93 and 87 and 7 and 68 and 20 and 84
- Mes1 ([3]; per mouse, of 100 glomeruli, mesangium region, Grade 1: Moderate or lower): 72 and 57 and 0 and 81 and 25 and 66 and 7 and 13 and 46 and 31 and 43 and 16
- Mes2 ([3]; per mouse, of 100 glomeruli, mesangium region, Grade 2: Moderate or higher): 13 and 0 (6×) and 3 and 26 and 47 and 1 and 37

Compound: belimumab
- Responder rate [4]: 54%
